The numbers were not newly measured in patent US20080233201A1, “Method for Preparing Calibrated Biodegradable Microspheres” (priority 2004, published 2008), which cites them from elsewhere.

Each structure is given as a SMILES string.

The conditions of this data set: at 20° C.

On to `CCOC(C)=O` [Ethyl acetate], for which the solubility in water was 8.7 g/100 g of water.
